Where two headings read alike, the source gives them in different places.
Assays:
OATP1B3 = target: T1, OATP1B3 (Homo sapiens, UniProt Q9NPD5); assay: OATP1B3-mediated pyranine uptake in A431 cells overexpressing OATP1B3; assay type: cell-based
T1 construct: host or cells: A431
T1 sequence (Q9NPD5 1-702): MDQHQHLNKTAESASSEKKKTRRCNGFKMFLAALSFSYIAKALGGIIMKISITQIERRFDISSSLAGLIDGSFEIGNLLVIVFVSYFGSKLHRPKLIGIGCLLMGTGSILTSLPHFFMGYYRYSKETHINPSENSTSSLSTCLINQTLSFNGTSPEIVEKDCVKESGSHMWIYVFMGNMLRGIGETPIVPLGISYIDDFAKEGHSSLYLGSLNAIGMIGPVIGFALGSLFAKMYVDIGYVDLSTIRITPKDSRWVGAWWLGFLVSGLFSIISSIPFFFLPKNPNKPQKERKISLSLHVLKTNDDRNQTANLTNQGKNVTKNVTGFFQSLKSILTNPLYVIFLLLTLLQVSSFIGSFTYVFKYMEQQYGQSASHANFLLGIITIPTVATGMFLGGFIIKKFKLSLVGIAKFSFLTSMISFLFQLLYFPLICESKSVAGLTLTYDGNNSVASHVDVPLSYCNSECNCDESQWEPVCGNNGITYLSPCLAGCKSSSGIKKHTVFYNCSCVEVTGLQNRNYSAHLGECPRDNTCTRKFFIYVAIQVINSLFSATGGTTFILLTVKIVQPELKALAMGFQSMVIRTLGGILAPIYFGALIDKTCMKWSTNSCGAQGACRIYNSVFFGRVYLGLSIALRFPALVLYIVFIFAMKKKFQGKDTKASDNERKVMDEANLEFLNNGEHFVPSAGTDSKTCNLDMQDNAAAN
Method: A431 cells overexpressing human OATPs, 1A2 (BC042452, HsCD00333163), 1B1 (Gene ID: AB026257), 1B3 (BC141525, HsCD00348132) or 2B1 (BC041095.1, HsCD00378878), or their mock transfected controls, were generated as previously described. Cells were cultured in Dulbecco’s Modified Eagle Medium (DMEM; Thermo Fischer Scientific, Waltham, MA, USA) supplemented with 10% fetal bovine serum, 2 mM L-glutamine, 100 units/mL penicillin and 100 µg/mL streptomycin, at 37 °C with 5% CO2.
Briefly, A431 cell overexpressing OATPs, 1A2, 1B1, 1B3 or 2B1, or their mock transfected controls, were seeded on 96-well plates in a density of 8x10^4 cells/well in 200 μL DMEM one day prior to the transport measurements. […] Thereafter, cells were incubated at 37°C for 15 min (OATP1B1 and OATP2B1), 10 min (OATP1A2), or 30 min (OATP1B3). The reactions were stopped by removing the supernatants, then the cells were washed three times with ice-cold PBS. […] OATP-dependent transport was calculated by extracting fluorescence measured in mock transfected cells. Transport activity was calculated based on the fluorescence signal in the absence (100%) of flavonoids. Experiments were repeated at least in three biological replicates. IC50 values were calculated by Hill1 fit, using the Origin Pro8.6 software ([…]).

CYP3A4 = target: T2, CYP3A4 (Homo sapiens, UniProt P08684); assay: CYP3A4-catalyzed testosterone hydroxylation (CypExpress kit, HPLC); assay type: biochemical; conditions: for concentration inducing statistically significant (p < 0.01) decrease in metabolite formation, CYP3A4: substrate 5 µM testosterone
T2 construct: purchased Sigma-Aldrich
T2 sequence (P08684 whole entry): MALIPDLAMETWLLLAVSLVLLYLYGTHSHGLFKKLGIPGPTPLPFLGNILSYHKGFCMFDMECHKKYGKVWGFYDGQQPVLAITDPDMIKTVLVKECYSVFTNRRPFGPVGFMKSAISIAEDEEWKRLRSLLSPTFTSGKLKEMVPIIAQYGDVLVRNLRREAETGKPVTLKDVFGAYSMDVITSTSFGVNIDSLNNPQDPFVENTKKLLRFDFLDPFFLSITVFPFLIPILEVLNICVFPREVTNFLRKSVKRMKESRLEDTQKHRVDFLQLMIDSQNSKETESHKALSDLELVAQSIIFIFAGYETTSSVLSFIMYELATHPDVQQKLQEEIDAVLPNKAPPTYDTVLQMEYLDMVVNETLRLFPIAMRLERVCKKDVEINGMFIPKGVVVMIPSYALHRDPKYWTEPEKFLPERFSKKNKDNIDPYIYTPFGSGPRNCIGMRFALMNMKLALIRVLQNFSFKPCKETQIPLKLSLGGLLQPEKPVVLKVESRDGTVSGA
Method: (§1) Inhibition of CYP2C19 [47], 3A4 [48], and 2D6 [49] by Q and its conjugates was tested based on our previously reported methods, without modifications.
(§2) S-mephenytoin and 4-hydroxymephenytoin (CYP2C19 assay), testosterone and 6β-hydroxytestosterone (CYP3A4 assay), as well as dextromethorphan and dextrorphan (CYP2D6 assay) were quantified using the previously described methods, with minor modifications.
In the CYP3A4 assay, samples were driven through a guard column (Security Guard™ Catridge C18 4.0 × 3.0 mm; Phenomenex, Torrance, CA, USA) linked to an analytical column (Kinetex C18 150 × 4.6 mm; 5 µm; Phenomenex, Torrance, CA, USA), with a 1.2 mL/min flow rate, at room temperature. The mobile phase contained methanol (VWR, Budapest, Hungary), water, and acetic acid (53:46:1 v/v%). After the isocratic elution, testosterone and 6β-hydroxytestosterone were detected at 240 nm.

BCRP = target: T3, BCRP (Homo sapiens, UniProt Q9UNQ0); assay: BCRP vanadate sensitive ATPase activity in Sf9 membrane vesicles; assay type: biochemical; conditions: 3 mM Mg-ATP, 25 min, 37 °C
T3 construct: made in house; host or cells: Sf9 insect cells (baculovirus)
T3 sequence (Q9UNQ0 1-655): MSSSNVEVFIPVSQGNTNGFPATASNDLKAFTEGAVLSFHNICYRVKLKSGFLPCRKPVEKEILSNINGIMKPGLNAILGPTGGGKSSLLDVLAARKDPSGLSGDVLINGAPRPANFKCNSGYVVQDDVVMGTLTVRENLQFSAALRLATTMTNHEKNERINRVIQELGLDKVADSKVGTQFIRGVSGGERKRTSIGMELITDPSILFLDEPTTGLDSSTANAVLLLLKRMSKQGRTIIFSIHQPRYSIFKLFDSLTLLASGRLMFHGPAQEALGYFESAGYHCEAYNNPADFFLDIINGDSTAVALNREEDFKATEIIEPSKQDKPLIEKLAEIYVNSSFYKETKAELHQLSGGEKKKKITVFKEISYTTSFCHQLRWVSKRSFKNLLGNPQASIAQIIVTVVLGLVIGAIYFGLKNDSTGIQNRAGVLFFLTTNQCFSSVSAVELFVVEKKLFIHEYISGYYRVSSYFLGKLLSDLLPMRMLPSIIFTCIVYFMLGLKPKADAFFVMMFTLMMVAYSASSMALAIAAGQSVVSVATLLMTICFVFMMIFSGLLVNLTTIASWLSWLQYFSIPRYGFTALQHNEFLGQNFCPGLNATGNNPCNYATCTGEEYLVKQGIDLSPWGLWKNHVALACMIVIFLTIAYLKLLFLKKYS
Method: ATPase activity was measured on Sf9 membrane vesicles containing human BCRP prepared as described in 2.5. Appropriate amounts of vesicles (10 μg/50 μL) were used in the assays. Experimental parameters were the same as it has been earlier reported. Membrane vesicles were incubated with 3 mM of Mg-ATP for 25 min at 37 °C. Effects of flavonoids were investigated up to 50 μM. […] ABC transporter function was determined as vanadate sensitive ATPase activity. Liberated inorganic phosphate was measured by a colorimetric reaction as described. Absorbance of samples was measured after 25 min at 660 nm.

CYP2C19 = target: T4, CYP2C19 (Homo sapiens, UniProt P33261); assay: CYP2C19-catalyzed S-mephenytoin hydroxylation (CypExpress kit, HPLC); assay type: biochemical; conditions: for concentration inducing statistically significant (p < 0.01) decrease in metabolite formation, CYP2C19: substrate 5 µM S-mephenytoin
T4 construct: purchased Sigma-Aldrich
T4 sequence (P33261 whole entry): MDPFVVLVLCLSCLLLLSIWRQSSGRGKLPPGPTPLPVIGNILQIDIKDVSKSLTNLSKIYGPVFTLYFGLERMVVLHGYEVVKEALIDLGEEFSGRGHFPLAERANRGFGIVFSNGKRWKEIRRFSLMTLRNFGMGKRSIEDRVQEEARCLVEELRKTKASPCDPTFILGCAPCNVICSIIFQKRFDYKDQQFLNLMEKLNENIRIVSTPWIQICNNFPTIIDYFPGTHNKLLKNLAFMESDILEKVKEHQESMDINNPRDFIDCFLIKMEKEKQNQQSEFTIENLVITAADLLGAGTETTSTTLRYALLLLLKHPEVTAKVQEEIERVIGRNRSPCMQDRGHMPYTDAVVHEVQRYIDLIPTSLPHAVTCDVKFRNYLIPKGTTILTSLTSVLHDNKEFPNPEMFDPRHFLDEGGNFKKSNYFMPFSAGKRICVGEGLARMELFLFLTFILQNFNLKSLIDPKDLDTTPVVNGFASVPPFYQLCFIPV
Method: as §1, §2
In CYP2C19 assay, the mobile phase contained acetonitrile, methanol (VWR), and sodium phosphate buffer (10 mM, pH 4.55) (17:10:73 v/v%). Samples were driven through a guard column (Phenomenex Security Guard C8, 4.0 × 3.0 mm) linked to an analytical column (Phenomenex C8 100 × 4.6 mm; 2.6 µm), with a 1 mL/min flow rate, at room temperature. After the isocratic elution, S-mephenytoin and 4-hydroxymephenytoin were detected at 230 nm.

[1] = 20 μM pyranine, 30 min, A431-OATP1B3 cells, read-out: IC50 for OATP1B3
[2] = testosterone hydroxylation, substrate 5 µM, read-out: IC50 for CYP3A4
[3] = S-mephenytoin hydroxylation, substrate 5 µM, read-out: IC50 for CYP2C19

concentration causing statistically significant (p < 0.01) inhibition, OATP1B3 (OATP1B3; 20 μM pyranine, 30 min) [µM]	IC50 (OATP1B3; [1]) [µM]	concentration inducing statistically significant (p < 0.01) decrease in metabolite formation, CYP3A4 (CYP3A4) [µM]	IC50 (CYP3A4; [2]) [µM]	concentration inducing statistically significant (p < 0.01) increase in ATPase activity of BCRP (BCRP) [µM]	IC50 (CYP2C19; [3]) [µM]	concentration inducing statistically significant (p < 0.01) decrease in metabolite formation, CYP2C19 (CYP2C19) [µM]	SMILES	IC50 (OATP1B3) [µM]	IC50 (CYP3A4) [µM]	IC50 (CYP2C19) [µM]
1.3	2.5	10	> 30	0.4	> 30	20	O=c1c(O)c(-c2ccc(O)c(OS(=O)(=O)O)c2)oc2cc(O)cc(O)c12 [Q3′S, quercetin-3′-sulfate]	–	–	–
3.1	5.71	20	> 30	50	> 30	20	O=C(O)C1OC(Oc2c(-c3ccc(O)c(O)c3)oc3cc(O)cc(O)c3c2=O)C(O)C(O)C1O (stereo not drawn) [Q3G, quercetin-3-glucuronide]	–	–	–
6.3	9.62	10	> 30	10	> 30	20	COc1cc(-c2oc3cc(O)cc(O)c3c(=O)c2OC2OC(C(=O)O)C(O)C(O)C2O)ccc1O (stereo not drawn) [I3G, isorhamnetin-3-glucuronide]	–	–	–

SMILES	concentration causing statistically significant (p < 0.01) inhibition, OATP1B3 (OATP1B3; 20 μM pyranine, 30 min) [µM]	IC50 (OATP1B3; [1]) [µM]	concentration inducing statistically significant (p < 0.01) decrease in metabolite formation, CYP3A4 (CYP3A4) [µM]	IC50 (CYP3A4; [2]) [µM]	concentration inducing statistically significant (p < 0.01) increase in ATPase activity of BCRP (BCRP) [µM]	IC50 (CYP2C19; [3]) [µM]	concentration inducing statistically significant (p < 0.01) decrease in metabolite formation, CYP2C19 (CYP2C19) [µM]	IC50 (OATP1B3) [µM]	IC50 (CYP3A4) [µM]	IC50 (CYP2C19) [µM]
O=c1c(O)c(-c2ccc(O)c(O)c2)oc2cc(O)cc(O)c12 [Q, quercetin]	2.5	3.22	5	–	0.08	–	10	–	–	–
COc1cc(-c2oc3cc(O)cc(O)c3c(=O)c2O)ccc1O [IR, isorhamnetin]	3.1	–	10	–	0.02	–	20	3.1	> 30	> 30
